According to ChEMBL document CHEMBL1137659, “Molecular epidemiology of clinical isolates of carbapenem-resistant Acinetobacter spp. from Chinese hospitals” (2007):
Converted amounts (≈) assume the structure as drawn.

How the values were obtained:
Acinetobacter baumannii [1] = assay: Antimicrobial activity against imipenem and meropenem-resistant Acinetobacter baumannii isolate PU4A22 by CLSI agar dilution method; format: functional
[2] = test system: Acinetobacter genospecies 3; assay: Antimicrobial activity against imipenem and meropenem-resistant Acinetobacter genospecies 3 isolate PUA7 by CLSI agar dilution method
Acinetobacter baumannii [3] = assay: Antimicrobial activity against imipenem and meropenem-resistant Acinetobacter baumannii isolate BJ3-9 by CLSI agar dilution method; format: functional
[4] = test system: Acinetobacter genospecies 10/11; assay: Antimicrobial activity against imipenem and meropenem-resistant Acinetobacter genospecies 10/11 isolate ZS15 by CLSI agar dilution method
Acinetobacter baumannii [5] = assay: Antimicrobial activity against imipenem and meropenem-resistant Acinetobacter baumannii isolate ZJ49 by CLSI agar dilution method; format: functional
Acinetobacter baumannii [6] = assay: Antimicrobial activity against imipenem and meropenem-resistant Acinetobacter baumannii isolate PUA1 by CLSI agar dilution method; format: functional
[7] = test system: Acinetobacter phenon 6/ct 13TU; assay: Antimicrobial activity against imipenem and meropenem-resistant Acinetobacter phenon 6/ct 13TU isolate FZ4A18 by CLSI agar dilution method
Acinetobacter baumannii [8] = assay: Antimicrobial activity against imipenem and meropenem-resistant Acinetobacter baumannii isolate BJ52 by CLSI agar dilution method; format: functional
[9] = test system: Acinetobacter genospecies 13TU; assay: Antimicrobial activity against imipenem and meropenem-resistant Acinetobacter genospecies 13TU isolate CY6 by CLSI agar dilution method
Acinetobacter baumannii [10] = assay: Antimicrobial activity against imipenem and meropenem-resistant Acinetobacter baumannii isolate FZ84 by CLSI agar dilution method; format: functional
Acinetobacter baumannii [11] = assay: Antimicrobial activity against imipenem and meropenem-resistant Acinetobacter baumannii isolate CY7 by CLSI agar dilution method; format: functional
[12] = test system: Acinetobacter genospecies 3 (Acinetobacter genomosp. 3); assay: Antimicrobial activity against imipenem and meropenem-resistant Acinetobacter genospecies 3 isolate PU78 by CLSI agar dilution method; settings: Acinetobacter genospecies 3, isolate PU78
Acinetobacter phenon 5 = assay: Antimicrobial activity against imipenem and meropenem-resistant Acinetobacter phenon 5 isolate PUA6 by CLSI agar dilution method
Acinetobacter baumannii [13] = assay: Antimicrobial activity against imipenem and meropenem-resistant Acinetobacter baumannii isolate NJ59 by CLSI agar dilution method; format: functional
Acinetobacter baumannii [14] = assay: Antimicrobial activity against imipenem and meropenem-resistant Acinetobacter baumannii isolate JN45 by CLSI agar dilution method; format: functional
Acinetobacter baumannii [15] = assay: Antimicrobial activity against imipenem and meropenem-resistant Acinetobacter baumannii isolate ZJ32 by CLSI agar dilution method; format: functional
[16] = test system: Acinetobacter genospecies 10/11; assay: Antimicrobial activity against imipenem and meropenem-resistant Acinetobacter genospecies 10/11 isolate ZS5 by CLSI agar dilution method
Acinetobacter baumannii [17] = assay: Antimicrobial activity against imipenem and meropenem-resistant Acinetobacter baumannii isolate PU73 by CLSI agar dilution method; format: functional
Acinetobacter baumannii [18] = assay: Antimicrobial activity against imipenem and meropenem-resistant Acinetobacter baumannii isolate BJ3-23 by CLSI agar dilution method; format: functional
Acinetobacter baumannii [19] = assay: Antimicrobial activity against imipenem and meropenem-resistant Acinetobacter baumannii isolate FW-F1 by CLSI agar dilution method; format: functional
Acinetobacter baumannii [20] = assay: Antimicrobial activity against imipenem and meropenem-resistant Acinetobacter baumannii isolate BJ55 by CLSI agar dilution method; format: functional
Acinetobacter baumannii [21] = assay: Antimicrobial activity against imipenem and meropenem-resistant Acinetobacter baumannii isolate PU4A1 by CLSI agar dilution method; format: functional
Acinetobacter baumannii [22] = assay: Antimicrobial activity against imipenem and meropenem-resistant Acinetobacter baumannii isolate DL34 by CLSI agar dilution method; format: functional
Acinetobacter baumannii [23] = assay: Antimicrobial activity against imipenem and meropenem-resistant Acinetobacter baumannii isolate ZJ36 by CLSI agar dilution method; format: functional
Acinetobacter baumannii [24] = assay: Antimicrobial activity against imipenem and meropenem-resistant Acinetobacter baumannii isolate ZJ58 by CLSI agar dilution method; format: functional
[25] = test system: Acinetobacter phenon 6/ct 13TU (Acinetobacter sp.); assay: Antimicrobial activity against imipenem and meropenem-resistant Acinetobacter phenon 6/ct 13TU isolate PU86 by CLSI agar dilution method

SMILES | MIC (Acinetobacter baumannii [1]) [mg/L] | MIC [2] [mg/L] | MIC (Acinetobacter baumannii [3]) [mg/L] | MIC [4] [mg/L] | MIC (Acinetobacter baumannii [5]) [mg/L] | MIC (Acinetobacter baumannii [6]) [mg/L] | MIC [7] [mg/L] | MIC [9] [mg/L] | MIC (Acinetobacter baumannii [10]) [mg/L] | MIC (Acinetobacter baumannii [11]) [mg/L] | MIC [12] [mg/L] | MIC (Acinetobacter phenon 5) [mg/L] | MIC (Acinetobacter baumannii [14]) [mg/L] | MIC (Acinetobacter baumannii [15]) [mg/L] | MIC [16] [mg/L] | MIC (Acinetobacter baumannii [17]) [mg/L] | MIC (Acinetobacter baumannii [18]) [mg/L] | MIC (Acinetobacter baumannii [19]) [mg/L] | MIC (Acinetobacter baumannii [20]) [mg/L] | MIC (Acinetobacter baumannii [21]) [mg/L] | other results
NCC[C@H](O)C(=O)N[C@@H]1C[C@H](N)[C@@H](O[C@H]2O[C@H](CN)[C@@H](O)[C@H](O)[C@H]2O)[C@H](O)[C@H]1O[C@H]1O[C@H](CO)[C@@H](O)[C@H](N)[C@H]1O [AMIKACIN] | 128 (≈ 219 µM) | 4 (≈ 6.83 µM) | > 256 | 256 (≈ 437 µM) | 256 (≈ 437 µM) | 8 (≈ 13.7 µM) | 32 (≈ 54.6 µM) | 32 (≈ 54.6 µM) | > 256 | > 256 | 1 (≈ 1.71 µM) | 2 (≈ 3.42 µM) | 128 (≈ 219 µM) | > 256 | > 256 | > 256 | > 256 | > 256 | > 256 | > 256 | MIC (Acinetobacter baumannii [8]): 2 mg/L (≈ 3.42 µM); MIC (Acinetobacter baumannii [13]): > 256 mg/L; MIC (Acinetobacter baumannii [22]): > 256 mg/L; MIC (Acinetobacter baumannii [23]): 2 mg/L (≈ 3.42 µM); MIC (Acinetobacter baumannii [24]): 64 mg/L (≈ 109 µM); MIC [25]: 4 mg/L (≈ 6.83 µM)
CC(C)(O/N=C(\C(=O)N[C@@H]1C(=O)N2C(C(=O)[O-])=C(C[n+]3ccccc3)CS[C@H]12)c1csc(N)n1)C(=O)O [CEFTAZIDIME] | > 256 | > 256 | 8 (≈ 14.6 µM) | 16 (≈ 29.3 µM) | 32 (≈ 58.5 µM) | > 256 | > 256 | > 256 | > 256 | > 256 | 4 (≈ 7.32 µM) | > 256 | > 256 | 64 (≈ 117 µM) | > 256 | > 256 | > 256 | > 256 | > 256 | > 256 | MIC (Acinetobacter baumannii [8]): 16 mg/L (≈ 29.3 µM); MIC (Acinetobacter baumannii [13]): > 256 mg/L; MIC (Acinetobacter baumannii [22]): 64 mg/L (≈ 117 µM); MIC (Acinetobacter baumannii [23]): 16 mg/L (≈ 29.3 µM); MIC (Acinetobacter baumannii [24]): 16 mg/L (≈ 29.3 µM); MIC [25]: > 256 mg/L
C[C@@H](O)[C@H]1C(=O)N2C(C(=O)O)=C(SCCNC=N)C[C@H]12 [IMIPENEM ANHYDROUS] | 64 (≈ 214 µM) | 16 (≈ 53.4 µM) | 64 (≈ 214 µM) | 64 (≈ 214 µM) | 32 (≈ 107 µM) | 64 (≈ 214 µM) | 16 (≈ 53.4 µM) | 32 (≈ 107 µM) | 16 (≈ 53.4 µM) | 64 (≈ 214 µM) | 16 (≈ 53.4 µM) | 64 (≈ 214 µM) | 32 (≈ 107 µM) | 64 (≈ 214 µM) | 64 (≈ 214 µM) | 64 (≈ 214 µM) | 64 (≈ 214 µM) | 64 (≈ 214 µM) | 32 (≈ 107 µM) | 64 (≈ 214 µM) | MIC (Acinetobacter baumannii [8]): 32 mg/L (≈ 107 µM); MIC (Acinetobacter baumannii [13]): 16 mg/L (≈ 53.4 µM); MIC (Acinetobacter baumannii [22]): 32 mg/L (≈ 107 µM); MIC (Acinetobacter baumannii [23]): 16 mg/L (≈ 53.4 µM); MIC (Acinetobacter baumannii [24]): 16 mg/L (≈ 53.4 µM); MIC [25]: 16 mg/L (≈ 53.4 µM)
C[C@H]1COc2c(N3CCN(C)CC3)c(F)cc3c(=O)c(C(=O)O)cn1c23.C[C@H]1COc2c(N3CCN(C)CC3)c(F)cc3c(=O)c(C(=O)O)cn1c23.O [LEVOFLOXACIN] | 4 | 0.06 | 4 | 4 | 4 | 16 | 0.12 | 0.12 | > 32 | > 32 | 0.125 | 0.06 | 0.5 | 16 | > 32 | 16 | 4 | 4 | 16 | 4 | MIC (Acinetobacter baumannii [23]): 4 mg/L; MIC (Acinetobacter baumannii [24]): > 32 mg/L; MIC [25]: 0.125 mg/L
